Values after ≈ are worked out from the molar mass of the structure shown.
Assays:
[1] = target: T1, recombinant purified human sEH (Homo sapiens, UniProt P34913); assay: sEH inhibition, kinetic fluorescent assay with CMNPC substrate; assay type: biochemical
T1 sequence (P34913 1-555): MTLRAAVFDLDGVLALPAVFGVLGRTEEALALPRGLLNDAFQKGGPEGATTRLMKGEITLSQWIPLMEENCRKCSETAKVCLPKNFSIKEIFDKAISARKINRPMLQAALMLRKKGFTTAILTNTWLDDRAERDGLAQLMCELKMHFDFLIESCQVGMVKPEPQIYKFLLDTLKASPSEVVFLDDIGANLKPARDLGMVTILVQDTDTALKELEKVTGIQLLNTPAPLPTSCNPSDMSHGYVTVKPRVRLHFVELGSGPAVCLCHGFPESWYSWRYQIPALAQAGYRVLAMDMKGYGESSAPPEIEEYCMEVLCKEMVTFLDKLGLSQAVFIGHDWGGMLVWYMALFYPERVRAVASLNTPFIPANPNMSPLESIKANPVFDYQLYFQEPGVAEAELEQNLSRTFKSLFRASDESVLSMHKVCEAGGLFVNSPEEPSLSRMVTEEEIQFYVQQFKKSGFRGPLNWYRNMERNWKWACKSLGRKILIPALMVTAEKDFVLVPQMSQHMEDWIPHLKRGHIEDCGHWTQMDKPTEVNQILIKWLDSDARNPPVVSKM

[2] = Solubility in sodium phosphate buffer; assay type: physicochemical; details: pH 7.4

| Structure (SMILES) | IC50 [1] [nM] | fold less potent ([1]; relative to 3d) [fold] | solubility [2] [µM] | fold less active than corresponding 1,3-disubstituted urea ([1]; relative to 3f) [fold] |
| --- | --- | --- | --- | --- |
| Cc1cc(CNC(=O)NC23CC4CC(C)(CC(C)(C4)C2)C3)on1 [4d] | 111 ± 10.3 | 10 | 200 to 225 (≈ 63.5 to 71.4 µg/mL) |  |
| CC(C)c1cc(C2CCCN2C(=O)NCC23CC4CC(CC(C4)C2)C3)no1 (centres unmarked) [3k] |  |  |  | > 5 |
| COc1ccc(-c2cc(CNC(=O)NCC34CC5CC(CC(C5)C3)C4)no2)cc1 [3b] |  |  | 100 to 125 (≈ 39.6 to 49.4 µg/mL) |  |
| CC12CC3CC(C)(C1)CC(NC(=O)NCc1cc(-c4ccco4)on1)(C3)C2 [4c] | 4.8 ± 0.6 |  | 75 to 100 (≈ 27.7 to 36.9 µg/mL) |  |
| COc1ccc(-c2cc(CNC(=O)NC34CC5CC(C)(CC(C)(C5)C3)C4)no2)cc1 [4b] | 18 ± 2.9 |  | 25 to 50 (≈ 10.2 to 20.5 µg/mL) |  |
| Cc1ccc(-c2cc(CNC(=O)NCC34CC5CC(CC(C5)C3)C4)no2)cc1 [3a] |  |  | 75 to 100 (≈ 28.5 to 38 µg/mL) |  |
| O=C(NCc1cc(-c2ccco2)on1)NCC12CC3CC(CC(C3)C1)C2 [3c] |  |  | 75 to 100 (≈ 26.7 to 35.5 µg/mL) |  |
| Cc1cc(CNC(=O)NCC23CC4CC(CC(C4)C2)C3)on1 [3d] | 9.9 ± 2.9 |  | 450 to 475 (≈ 137 to 144 µg/mL) |  |
| CC12CC3CC(C)(C1)CC(NC(=O)NCc1cc(-c4cccc(F)c4)no1)(C3)C2 [4g] | 14.2 ± 2.5 |  | 75 to 100 (≈ 29.8 to 39.7 µg/mL) |  |
| Cc1ccc(-c2cc(CNC(=O)NC34CC5CC(C)(CC(C)(C5)C3)C4)no2)cc1 [4a] | 28.8 ± 4.5 |  | 125 to 150 (≈ 49.2 to 59 µg/mL) |  |
| CC(C)c1cc(CNC(=O)NCC23CC4CC(CC(C4)C2)C3)on1 [3f] |  |  | 125 to 150 (≈ 41.4 to 49.7 µg/mL) |  |
| O=C(NCc1cc(-c2cccc(F)c2)no1)NCC12CC3CC(CC(C3)C1)C2 [3g] | 13.7 ± 3 |  | 75 to 100 (≈ 28.8 to 38.3 µg/mL) |  |

— publication PMC4654407 (Bioorganic & medicinal chemistry letters, 2015)
